The source made the active and inactive calls. No cut-off for these calls is given here.
How the values were obtained:
[1] = Cytotoxicity against human MHCC97L cells assessed as growth inhibition after 24 hrs by MTT assay; assay type: functional, cell-based
PLC-PRF-5 [2] = test: Cytotoxicity against human PLC/PRF/5 cells assessed as growth inhibition after 24 hrs by MTT assay; assay type: functional, cell-based; conditions: PLC-PRF-5, 24 h
[3] = Potency index, ratio of sorafenib IC50 to test compound IC50 for human MHCC97L cells; assay type: functional
PLC-PRF-5 [4] = test: Potency index, ratio of sorafenib IC50 to test compound IC50 for human PLC/PRF/5 cells; assay type: functional
[5] = Potency index, ratio of tetrandrine IC50 to test compound IC50 for human MHCC97L cells; assay type: functional
PLC-PRF-5 [6] = test: Potency index, ratio of tetrandrine IC50 to test compound IC50 for human PLC/PRF/5 cells; assay type: functional
PLC-PRF-5 [7] = test: Cell cycle arrest in human PLC/PRF/5 cells assessed as accumulation at G0/G1 phase at 1.25 to 2.5 uM after 24 hrs by propidium iodide staining-based flow cytometric method (reference value: 69.17%); assay type: functional
PLC-PRF-5 [8] = test: Cell cycle arrest in human PLC/PRF/5 cells assessed as accumulation at S phase at 1.25 to 2.5 uM after 24 hrs by propidium iodide staining-based flow cytometric method (reference value: 20.73%); assay type: functional
PLC-PRF-5 [9] = test: Cell cycle arrest in human PLC/PRF/5 cells assessed as accumulation at G2/M phase at 1.25 to 2.5 uM after 24 hrs by propidium iodide staining-based flow cytometric method (reference value: 18.18%); assay type: functional
[10] = Cell cycle arrest in human MHCC97L cells assessed as accumulation at G0/G1 phase at 1.25 to 2.5 uM after 24 hrs by propidium iodide staining-based flow cytometric method (reference value: 65.24%); assay type: functional
[11] = Cell cycle arrest in human MHCC97L cells assessed as accumulation at S phase at 1.25 to 2.5 uM after 24 hrs by propidium iodide staining-based flow cytometric method (reference value: 18.41%); assay type: functional
[12] = Cell cycle arrest in human MHCC97L cells assessed as accumulation at G2/M phase at 1.25 to 2.5 uM after 24 hrs by propidium iodide staining-based flow cytometric method (reference value: 20.60%); assay type: functional
PLC-PRF-5 [13] = test: Induction of apoptosis in human PLC/PRF/5 cells assessed as early apoptotic cells at 1.25 to 2.5 uM after 24 hrs by annexin V/7-AAD staining-based flow cytometric method (reference value: 0.467%); assay type: functional
PLC-PRF-5 [14] = test: Induction of apoptosis in human PLC/PRF/5 cells assessed as late apoptotic cells at 1.25 to 2.5 uM after 24 hrs by annexin V/7-AAD staining-based flow cytometric method (reference value: 2.66%); assay type: functional
PLC-PRF-5 [15] = test: Induction of apoptosis in human PLC/PRF/5 cells assessed as necrotic cells at 1.25 to 2.5 uM after 24 hrs by annexin V/7-AAD staining-based flow cytometric method (reference value: 1.87%); assay type: functional
PLC-PRF-5 [16] = test: Induction of apoptosis in human PLC/PRF/5 cells assessed as viable cells at 1.25 to 2.5 uM after 24 hrs by annexin V/7-AAD staining-based flow cytometric method (reference value: 95%); assay type: functional
[17] = Induction of apoptosis in human MHCC97L cells assessed as early apoptotic cells at 1.25 to 2.5 uM after 24 hrs by annexin V/7-AAD staining-based flow cytometric method (reference value: 0.601%); assay type: functional
[18] = Induction of apoptosis in human MHCC97L cells assessed as late apoptotic cells at 1.25 to 2.5 uM after 24 hrs by annexin V/7-AAD staining-based flow cytometric method (reference value: 3.66%); assay type: functional
[19] = Induction of apoptosis in human MHCC97L cells assessed as necrotic cells at 1.25 to 2.5 uM after 24 hrs by annexin V/7-AAD staining-based flow cytometric method (reference value: 3.44%); assay type: functional
[20] = Induction of apoptosis in human MHCC97L cells assessed as viable cells at 1.25 to 2.5 uM after 24 hrs by annexin V/7-AAD staining-based flow cytometric method (reference value: 93.4%); assay type: functional
PLC-PRF-5 [21] = test: Cytotoxicity against human PLC/PRF/5 cells assessed as decrease in cell viability at 1.25 to 2.5 uM after 24 hrs in presence of caspase inhibitor Z-vad-fmk by MTT assay; assay type: functional, cell-based
MHCC97L [22] = test: Cytotoxicity against human MHCC97L cells assessed as decrease in cell viability at 1.25 to 2.5 uM after 24 hrs in presence of caspase inhibitor Z-vad-fmk by MTT assay; assay type: functional, cell-based
PLC-PRF-5 [23] = test: Cytotoxicity against human PLC/PRF/5 cells assessed as decrease in cell viability at 1.25 to 2.5 uM after 24 hrs in presence of autophagy inhibitor bafilomycin A1 by MTT assay; assay type: functional, cell-based
MHCC97L [24] = test: Cytotoxicity against human MHCC97L cells assessed as decrease in cell viability at 1.25 to 2.5 uM after 24 hrs in presence of autophagy inhibitor bafilomycin A1 by MTT assay; assay type: functional, cell-based
PLC-PRF-5 [25] = test: Cytotoxicity against human PLC/PRF/5 cells assessed as decrease in cell viability at 1.25 to 2.5 uM after 24 hrs in presence of necrosis inhibitor necrostatin-1 by MTT assay; assay type: functional, cell-based
MHCC97L [26] = test: Cytotoxicity against human MHCC97L cells assessed as decrease in cell viability at 1.25 to 2.5 uM after 24 hrs in presence of necrosis inhibitor necrostatin-1 by MTT assay; assay type: functional, cell-based
PLC-PRF-5 [27] = test: Induction of endoplasmic reticulum stress in human PLC/PRF/5 cells at 1.25 to 2.5 uM after 24 hrs by ER tracker red staining-based fluorescence microscopic method; assay type: functional, cell-based
MHCC97L [28] = test: Induction of endoplasmic reticulum stress in human MHCC97L cells at 1.25 to 2.5 uM after 24 hrs by ER tracker red staining-based fluorescence microscopic method; assay type: functional, cell-based
PLC-PRF-5 [29] = test: Induction of endoplasmic reticulum stress in human PLC/PRF/5 cells assessed as upregulation of GRP78 gene expression at 1.25 to 2.5 uM after 24 hrs by qRT-PCR method; assay type: functional, cell-based
PLC-PRF-5 [30] = test: Induction of endoplasmic reticulum stress in human PLC/PRF/5 cells assessed as upregulation of ATF4 gene expression at 1.25 to 2.5 uM after 24 hrs by qRT-PCR method; assay type: functional, cell-based
MHCC97L [31] = test: Induction of endoplasmic reticulum stress in human MHCC97L cells assessed as upregulation of GRP78 gene expression at 1.25 to 2.5 uM after 24 hrs by qRT-PCR method; assay type: functional, cell-based
MHCC97L [32] = test: Induction of endoplasmic reticulum stress in human MHCC97L cells assessed as upregulation of ATF4 gene expression at 1.25 to 2.5 uM after 24 hrs by qRT-PCR method; assay type: functional, cell-based
PLC-PRF-5 [33] = test: Cytotoxicity against human PLC/PRF/5 cells assessed as decrease in cell viability at 1.25 to 2.5 uM after 24 hrs in presence of endoplasmic reticulum stress reliever TUDCA by MTT assay; assay type: functional, cell-based
MHCC97L [34] = test: Cytotoxicity against human MHCC97L cells assessed as decrease in cell viability at 1.25 to 2.5 uM after 24 hrs in presence of endoplasmic reticulum stress reliever TUDCA by MTT assay; assay type: functional, cell-based
[35] = target: T1, c-Jun N-terminal kinase, JNK (Homo sapiens) (UniProt P45983+P53779+P45984); test: Induction of JNK phosphorylation in human PLC/PRF/5 cells at 1.25 to 2.5 uM after 24 hrs by immunoblot method; assay type: cell-based
[36] = target: T1, c-Jun N-terminal kinase, JNK (Homo sapiens); test: Induction of JNK phosphorylation in human MHCC97L cells at 1.25 to 2.5 uM after 24 hrs by immunoblot method; assay type: cell-based
[37] = target: T1, c-Jun N-terminal kinase, JNK (Homo sapiens); test: Induction of JNK activation in human PLC/PRF/5 cells assessed as increase in caspase 3 cleavage at 1.25 to 2.5 uM after 24 hrs by immunoblot method; assay type: cell-based
[38] = target: T1, c-Jun N-terminal kinase, JNK (Homo sapiens); test: Induction of JNK activation in human MHCC97L cells assessed as increase in caspase 3 cleavage at 1.25 to 2.5 uM after 24 hrs by immunoblot method; assay type: cell-based
PLC-PRF-5 [39] = test: Cytotoxicity against human PLC/PRF/5 cells assessed as decrease in cell viability at 1.25 to 2.5 uM after 24 hrs in presence of JNK inhibitor SP600125 by MTT assay; assay type: functional, cell-based
MHCC97L [40] = test: Cytotoxicity against human MHCC97L cells assessed as decrease in cell viability at 1.25 to 2.5 uM after 24 hrs in presence of JNK inhibitor SP600125 by MTT assay; assay type: functional, cell-based

With `COc1cc(NC(=O)c2ccco2)c2cc1Oc1ccc(cc1)C[C@H]1c3cc(c(OC)cc3CCN1C)Oc1c(OC)c(OC)cc3c1[C@H](C2)N(C)CC3` as the molecule, how does the IC50 [1] read?
Its IC50 is 890 nM.

And the IC50 (PLC-PRF-5 [2])?
The IC50 was 1230 nM.

And the “Ratio IC50” value [3]?
The value was 30.3.

What about the “Ratio IC50” value (PLC-PRF-5 [4]) of the same molecule?
The value was 30.3.

And the “Ratio IC50” value [5]?
The value was 15.8.

What about the “Ratio IC50” value (PLC-PRF-5 [6]) of the same molecule?
The value was 15.8.

What about the Activity (PLC-PRF-5 [7]) of the same molecule?
The Activity was 67.11%.

What about the Activity (PLC-PRF-5 [8]) of the same molecule?
The Activity was 21.55%.

What about the Activity (PLC-PRF-5 [9]) of the same molecule?
The Activity was 17.78%.

And the Activity [10]?
The Activity was 68.52%.

And the Activity [11]?
The Activity was 21.59%.

And the Activity [12]?
The Activity was 18.29%.

What about the Activity (PLC-PRF-5 [13]) of the same molecule?
Its Activity is 16.9%.

And the Activity (PLC-PRF-5 [14])?
The Activity was 42.8%.

And the Activity (PLC-PRF-5 [15])?
Its Activity is 3.9%.

And the Activity (PLC-PRF-5 [16])?
Its Activity is 36.4%.

What about the Activity [17] of the same molecule?
The Activity was 9.76%.

And the Activity [18]?
Its Activity is 39.6%.

And the Activity [19]?
Its Activity is 4.18%.

And the Activity [20]?
Its Activity is 46.4%.

What about the Activity (PLC-PRF-5 [21]) of the same molecule?
Its Activity is “inactive”.

What about the Activity (MHCC97L [22]) of the same molecule?
The Activity was “inactive”.

What about the Activity (PLC-PRF-5 [23]) of the same molecule?
Its Activity is “Active”.

What about the Activity (MHCC97L [24]) of the same molecule?
The Activity was “Active”.

What about the Activity (PLC-PRF-5 [25]) of the same molecule?
The Activity was “Active”.

What about the Activity (MHCC97L [26]) of the same molecule?
The Activity was “Active”.

What about the Activity (PLC-PRF-5 [27]) of the same molecule?
The Activity was “Active”.

What about the Activity (MHCC97L [28]) of the same molecule?
The Activity was “Active”.

What about the Activity (PLC-PRF-5 [29]) of the same molecule?
Its Activity is “Active”.

And the Activity (PLC-PRF-5 [30])?
Its Activity is “Active”.

What about the Activity (MHCC97L [31]) of the same molecule?
The Activity was “Active”.

And the Activity (MHCC97L [32])?
Its Activity is “Active”.

What about the Activity (PLC-PRF-5 [33]) of the same molecule?
The Activity was “inactive”.

What about the Activity (MHCC97L [34]) of the same molecule?
The Activity was “inactive”.

What about the Activity [35] of the same molecule?
Its Activity is “Active”.

And the Activity [36]?
Its Activity is “Active”.

What about the Activity [37] of the same molecule?
The Activity was “Active”.

And the Activity [38]?
The Activity was “Active”.

What about the Activity (PLC-PRF-5 [39]) of the same molecule?
The Activity was “inactive”.

And the Activity (MHCC97L [40])?
Its Activity is “inactive”.

Reference: ChEMBL document CHEMBL4004821, “Design and synthesis of novel tetrandrine derivatives as potential anti-tumor agents against human hepatocellular carcinoma” (Eur J Med Chem, 2017)
